Here are results for 12 compounds from patent US12539292B2, “BRM targeting compounds and associated methods of use” (Arvinas Operations, Inc., priority 2018, dated 2026).

The structures appear in SMILES notation. Where only a bound is given, the exact number is not on record here.

The target in this assay is T1, BRM (Homo sapiens, UniProt P51531).
T1 construct: In-Cell Western Screen of BRM Degradation in SW1573 Cells; endogenous in cells; host or cells: SW1573
The assay is described as follows: In-cell Western screen of BRM degradation in SW1573 cells (Dmax and DC50). Type of assay: cell-based. Particulars: for Dmax: SW1573, % degraded, when tested at the top concentration of between 0.3 and 10 μM, read-out: BRM Dmax (%); for DC50: target protein degradation, read-out: BRM DC50. In short, it runs like this:
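SW1573 cells were treated with compound overnight (18-20 h; final DMSO 0.1%), then fixed in 4% PFA, permeabilized with Triton X-100 and blocked. BRM was detected by in-cell Western using 800 nm anti-rabbit and 680 nm anti-mouse secondaries, and Dmax and DC50 were derived from the LI-COR Odyssey signal.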

T1 sequence (P51531 whole entry): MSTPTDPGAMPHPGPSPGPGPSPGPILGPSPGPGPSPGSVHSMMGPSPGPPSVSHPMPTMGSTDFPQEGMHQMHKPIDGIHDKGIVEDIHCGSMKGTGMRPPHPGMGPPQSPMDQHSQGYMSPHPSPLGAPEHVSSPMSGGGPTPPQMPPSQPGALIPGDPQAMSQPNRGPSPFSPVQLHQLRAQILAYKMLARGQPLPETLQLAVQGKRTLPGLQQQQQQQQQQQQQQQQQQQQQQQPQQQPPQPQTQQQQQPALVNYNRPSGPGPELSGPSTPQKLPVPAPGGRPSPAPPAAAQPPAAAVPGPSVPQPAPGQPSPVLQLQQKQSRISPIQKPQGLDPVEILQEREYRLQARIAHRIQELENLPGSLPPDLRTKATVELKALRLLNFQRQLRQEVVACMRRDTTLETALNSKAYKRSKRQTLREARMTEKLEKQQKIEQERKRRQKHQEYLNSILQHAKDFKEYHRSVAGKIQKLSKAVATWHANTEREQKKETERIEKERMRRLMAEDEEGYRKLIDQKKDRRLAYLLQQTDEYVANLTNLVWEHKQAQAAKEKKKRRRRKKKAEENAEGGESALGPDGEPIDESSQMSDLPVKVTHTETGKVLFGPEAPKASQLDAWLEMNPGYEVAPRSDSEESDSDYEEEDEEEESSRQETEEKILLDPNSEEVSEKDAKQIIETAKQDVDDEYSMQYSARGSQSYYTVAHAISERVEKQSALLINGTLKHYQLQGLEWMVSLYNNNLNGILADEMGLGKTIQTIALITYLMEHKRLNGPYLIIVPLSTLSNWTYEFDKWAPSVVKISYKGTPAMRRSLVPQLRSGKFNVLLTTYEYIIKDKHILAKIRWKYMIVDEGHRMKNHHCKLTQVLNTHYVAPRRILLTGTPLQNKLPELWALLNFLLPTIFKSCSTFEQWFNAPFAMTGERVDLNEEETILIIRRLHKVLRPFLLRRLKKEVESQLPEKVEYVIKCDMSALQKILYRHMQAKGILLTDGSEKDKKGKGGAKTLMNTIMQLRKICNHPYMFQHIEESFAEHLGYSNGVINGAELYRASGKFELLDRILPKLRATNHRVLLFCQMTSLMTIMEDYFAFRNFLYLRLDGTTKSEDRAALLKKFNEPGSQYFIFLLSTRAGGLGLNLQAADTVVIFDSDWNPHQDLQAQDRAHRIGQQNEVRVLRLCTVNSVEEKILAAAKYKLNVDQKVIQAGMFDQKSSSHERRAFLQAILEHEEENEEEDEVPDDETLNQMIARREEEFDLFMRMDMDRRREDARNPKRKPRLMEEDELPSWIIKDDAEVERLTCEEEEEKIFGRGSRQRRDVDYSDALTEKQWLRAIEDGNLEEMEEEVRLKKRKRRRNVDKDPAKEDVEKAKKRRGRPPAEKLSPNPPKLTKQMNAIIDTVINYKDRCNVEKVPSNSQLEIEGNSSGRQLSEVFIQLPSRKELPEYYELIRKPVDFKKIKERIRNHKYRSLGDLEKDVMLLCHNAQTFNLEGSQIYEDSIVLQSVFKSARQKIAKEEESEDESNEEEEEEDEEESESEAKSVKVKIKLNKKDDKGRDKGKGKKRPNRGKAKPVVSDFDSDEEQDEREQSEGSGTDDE

By Dmax is commonly meant the largest share of the target that was removed. Usually DC50 stands for the midpoint of the concentration-degradation curve. Take `Cc1ncsc1-c1ccc([C@H](C)NC(=O)[C@@H]2C[C@@H](O)CN2C(=O)[C@H](c2cc(OCCCN3CCN(CCCOc4cc(N5C6CCC5CN(c5cc(-c7ccccc7O)nnc5N)C6)ccn4)CC3)no2)C(C)C)cc1` [compound 384, (2S,4R)-1-((2S)-2-(3-(3-(4-(3-((4-(3-(3-amino-6-(2-hydroxyphenyl)pyridazin-4-yl)-3,8-diazabicyclo[3.2.1]octan-8-yl)pyridin-2-yl)oxy)propyl)piperazin-1-yl)propoxy)isoxazol-5-yl)-3-methylbutanoyl)-4-hydroxy-N-((S)-1-(4-(4-methylthiazol-5-yl)phenyl)ethyl)pyrrolidine-2-carboxamide]: the Dmax is above 75% and the half-maximal degradation concentration (DC50) lay within 2.5 to 10 nM. With `Cc1ncsc1-c1ccc([C@H](C)NC(=O)[C@@H]2C[C@@H](O)CN2C(=O)[C@@H](c2cc(OCCCN3CCN(CCCOc4cc(N5C6CCC5CN(c5cc(-c7ccccc7O)nnc5N)C6)ccn4)CC3)no2)C(C)C)cc1` [compound 385, (2S,4R)-1-((2R)-2-(3-(3-(4-(3-((4-(3-(3-amino-6-(2-hydroxyphenyl)pyridazin-4-yl)-3,8-diazabicyclo[3.2.1]octan-8-yl)pyridin-2-yl)oxy)propyl)piperazin-1-yl)propoxy)isoxazol-5-yl)-3-methylbutanoyl)-4-hydroxy-N-((S)-1-(4-(4-methylthiazol-5-yl)phenyl)ethyl)pyrrolidine-2-carboxamide], the Dmax was above 75% and the DC50 was below 2.5 nM.

Consider `CC(C)[C@H](C(=O)N1C[C@H](O)C[C@H]1C(=O)N[C@@H](C)c1ccc(C#N)cc1)c1cc(OCC#Cc2ncc(O[C@H]3C[C@H](Oc4cc(N5C6CCC5CN(c5cc(-c7ccccc7O)nnc5N)C6)ccn4)C3)cn2)no1` [compound 386, (2S,4R)-1-((2S)-2-(3-((3-(5-((1r,3S)-3-((4-(3-(3-amino-6-(2-hydroxyphenyl)pyridazin-4-yl)-3,8-diazabicyclo[3.2.1]octan-8-yl)pyridin-2-yl)oxy)cyclobutoxy)pyrimidin-2-yl)prop-2-yn-1-yl)oxy)isoxazol-5-yl)-3-methylbutanoyl)-N-((S)-1-(4-cyanophenyl)ethyl)-4-hydroxypyrrolidine-2-carboxamide], for which the Dmax is above 75% and the DC50 lay within 10 to 30 nM.

Take `CC(C)[C@@H](C(=O)N1C[C@H](O)C[C@H]1C(=O)N[C@@H](C)c1ccc(C#N)cc1)c1cc(OCC#Cc2ncc(O[C@H]3C[C@H](Oc4cc(N5C6CCC5CN(c5cc(-c7ccccc7O)nnc5N)C6)ccn4)C3)cn2)no1` [compound 387, (2S,4R)-1-((2R)-2-(3-((3-(5-((1r,3R)-3-((4-(3-(3-amino-6-(2-hydroxyphenyl)pyridazin-4-yl)-3,8-diazabicyclo[3.2.1]octan-8-yl)pyridin-2-yl)oxy)cyclobutoxy)pyrimidin-2-yl)prop-2-yn-1-yl)oxy)isoxazol-5-yl)-3-methylbutanoyl)-N-((S)-1-(4-cyanophenyl)ethyl)-4-hydroxypyrrolidine-2-carboxamide]: the Dmax is above 75% and the DC50 was below 2.5 nM.

For the compound `Cc1ncsc1-c1ccc([C@H](C)NC(=O)[C@@H]2C[C@@H](O)CN2C(=O)[C@@H](c2cc(OCCN[C@H]3CC[C@@H](O[C@H]4C[C@@H](Oc5cc(N6C7CCC6CN(c6cc(-c8ccccc8O)nnc6N)C7)ccn5)C4)CC3)no2)C(C)C)cn1` [compound 388, (2S,4R)-1-((2R)-2-(3-(2-(((1S,4S)-4-((1r,3S)-3-((4-(3-(3-amino-6-(2-hydroxyphenyl)pyridazin-4-yl)-3,8-diazabicyclo[3.2.1]octan-8-yl)pyridin-2-yl)oxy)cyclobutoxy)cyclohexyl)amino)ethoxy)isoxazol-5-yl)-3-methylbutanoyl)-4-hydroxy-N-((S)-1-(6-(4-methylthiazol-5-yl)pyridin-3-yl)ethyl)pyrrolidine-2-carboxamide], the Dmax was above 75% and the DC50 lay within 2.5 to 10 nM. As for `Cc1ncsc1-c1ccc([C@H](C)NC(=O)[C@@H]2C[C@@H](O)CN2C(=O)[C@H](c2cc(OCCCCN3CCN(CCCCOc4cc(N5C6CCC5CN(c5cc(-c7ccccc7O)nnc5N)C6)ccn4)CC3)no2)C(C)C)cc1` [compound 389, (2S,4R)-1-((2S)-2-(3-(4-(4-(4-((4-(3-(3-amino-6-(2-hydroxyphenyl)pyridazin-4-yl)-3,8-diazabicyclo[3.2.1]octan-8-yl)pyridin-2-yl)oxy)butyl)piperazin-1-yl)butoxy)isoxazol-5-yl)-3-methylbutanoyl)-4-hydroxy-N-((S)-1-(4-(4-methylthiazol-5-yl)phenyl)ethyl)pyrrolidine-2-carboxamide], the Dmax was above 75% and the DC50 fell in the range of 10 to 30 nM. Take `Cc1ncsc1-c1ccc([C@H](C)NC(=O)[C@@H]2C[C@@H](O)CN2C(=O)[C@@H](c2cc(OCCCCN3CCN(CCCCOc4cc(N5C6CCC5CN(c5cc(-c7ccccc7O)nnc5N)C6)ccn4)CC3)no2)C(C)C)cc1` [compound 390, (2S,4R)-1-((2R)-2-(3-(4-(4-(4-((4-(3-(3-amino-6-(2-hydroxyphenyl)pyridazin-4-yl)-3,8-diazabicyclo[3.2.1]octan-8-yl)pyridin-2-yl)oxy)butyl)piperazin-1-yl)butoxy)isoxazol-5-yl)-3-methylbutanoyl)-4-hydroxy-N-((S)-1-(4-(4-methylthiazol-5-yl)phenyl)ethyl)pyrrolidine-2-carboxamide]: the Dmax was above 75% and the DC50 was below 2.5 nM. With `Cc1ncsc1-c1ccc([C@H](C)NC(=O)[C@@H]2C[C@@H](O)CN2C(=O)[C@H](c2cc(OC/C=C/c3ncc(O[C@H]4C[C@H](Oc5cc(N6C7CCC6CN(c6cc(-c8ccccc8O)nnc6N)C7)ccn5)C4)cn3)no2)C(C)C)cc1` [compound 391, (2S,4R)-1-((2S)-2-(3-(((E)-3-(5-((1r,3S)-3-((4-(3-(3-amino-6-(2-hydroxyphenyl)pyridazin-4-yl)-3,8-diazabicyclo[3.2.1]octan-8-yl)pyridin-2-yl)oxy)cyclobutoxy)pyrimidin-2-yl)allyl)oxy)isoxazol-5-yl)-3-methylbutanoyl)-4-hydroxy-N-((S)-1-(4-(4-methylthiazol-5-yl)phenyl)ethyl)pyrrolidine-2-carboxamide], the DC50 was above 30 nM. `Cc1ncsc1-c1ccc([C@H](C)NC(=O)[C@@H]2C[C@@H](O)CN2C(=O)[C@@H](c2cc(OC/C=C/c3ncc(O[C@H]4C[C@H](Oc5cc(N6C7CCC6CN(c6cc(-c8ccccc8O)nnc6N)C7)ccn5)C4)cn3)no2)C(C)C)cc1` [compound 392, (2S,4R)-1-((2R)-2-(3-(((E)-3-(5-((1r,3R)-3-((4-(3-(3-amino-6-(2-hydroxyphenyl)pyridazin-4-yl)-3,8-diazabicyclo[3.2.1]octan-8-yl)pyridin-2-yl)oxy)cyclobutoxy)pyrimidin-2-yl)allyl)oxy)isoxazol-5-yl)-3-methylbutanoyl)-4-hydroxy-N-((S)-1-(4-(4-methylthiazol-5-yl)phenyl)ethyl)pyrrolidine-2-carboxamide]: the Dmax was above 75% and the DC50 is below 2.5 nM. On to `Cc1nccn1-c1ccc([C@H](C)NC(=O)[C@@H]2C[C@@H](O)CN2C(=O)[C@H](c2cc(OCC#Cc3ncc(O[C@H]4C[C@H](Oc5cc(N6C7CCC6CN(c6cc(-c8ccccc8O)nnc6N)C7)ccn5)C4)cn3)no2)C(C)C)cc1` [compound 393, (2S,4R)-1-((2S)-2-(3-((3-(5-((1r,3S)-3-((4-(3-(3-amino-6-(2-hydroxyphenyl)pyridazin-4-yl)-3,8-diazabicyclo[3.2.1]octan-8-yl)pyridin-2-yl)oxy)cyclobutoxy)pyrimidin-2-yl)prop-2-yn-1-yl)oxy)isoxazol-5-yl)-3-methylbutanoyl)-4-hydroxy-N-((S)-1-(4-(2-methyl-1H-imidazol-1-yl)phenyl)ethyl)pyrrolidine-2-carboxamide], for which the Dmax was above 75% and the DC50 is above 30 nM. On to `Cc1nccn1-c1ccc([C@H](C)NC(=O)[C@@H]2C[C@@H](O)CN2C(=O)[C@@H](c2cc(OCC#Cc3ncc(O[C@H]4C[C@H](Oc5cc(N6C7CCC6CN(c6cc(-c8ccccc8O)nnc6N)C7)ccn5)C4)cn3)no2)C(C)C)cc1` [compound 394, (2S,4R)-1-((2R)-2-(3-((3-(5-((1r,3R)-3-((4-(3-(3-amino-6-(2-hydroxyphenyl)pyridazin-4-yl)-3,8-diazabicyclo[3.2.1]octan-8-yl)pyridin-2-yl)oxy)cyclobutoxy)pyrimidin-2-yl)prop-2-yn-1-yl)oxy)isoxazol-5-yl)-3-methylbutanoyl)-4-hydroxy-N-((S)-1-(4-(2-methyl-1H-imidazol-1-yl)phenyl)ethyl)pyrrolidine-2-carboxamide], for which the greatest degradation seen (Dmax) was above 75% and the DC50 is below 2.5 nM. The like results for `Cc1ncsc1-c1ccc([C@H](C)NC(=O)[C@@H]2C[C@@H](O)CN2C(=O)[C@@H](c2cc(OCCN3CCC(O[C@H]4C[C@H](OCC#CCn5cc(-c6cc(-c7ccccc7O)nnc6N)cn5)C4)CC3)no2)C(C)C)cc1` [compound 395, (2S,4R)-1-((R)-2-(3-(2-(4-((1r,3R)-3-((4-(4-(3-amino-6-(2-hydroxyphenyl)pyridazin-4-yl)-1H-pyrazol-1-yl)but-2-yn-1-yl)oxy)cyclobutoxy)piperidin-1-yl)ethoxy)isoxazol-5-yl)-3-methylbutanoyl)-4-hydroxy-N-((S)-1-(4-(4-methylthiazol-5-yl)phenyl)ethyl)pyrrolidine-2-carboxamide] were, in that order, above 75% and below 2.5 nM.
